Our source for the GI50 and TGI values is PubChem BioAssay (NCI).

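Where inhibition never reached the appropriate level, the endpoint shown equals the highest concentration tested. Otherwise, values were interpolated linearly from a five-concentration, 48-hour dose response in 96-well plates. GI50 marks 50% less growth. TGI: concentration producing complete growth inhibition.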

Among the test systems are SN12C renal; CAKI-1 renal; RPMI-8226 leukemia; M14 melanoma; UO-31 renal; HCT-15 colon; SF-295 CNS; A549 NSCLC; SNB-19 CNS; MDA-MB-435.
Holding throughout (assay): NCI-60 cell line screen, 48 h

On to `CCCCCCCCCCCCCC1=NC(C)(C)CN1C(C)C`, for which the GI50 is 1.59 µM with SN12C renal; 1.36 µM in the assay with CAKI-1 renal; 1.2 µM in the assay on RPMI-8226 leukemia; 1.72 µM in the assay with M14 melanoma; 1.39 µM in the assay on UO-31 renal; 1.32 µM with HCT-15 colon. Also, the GI50 in the assay on SF-295 CNS was 1.62 µM; in the assay on A549 NSCLC it was 1.76 µM; in the assay on SNB-19 CNS, 1.79 µM; in the assay with MDA-MB-435, 1.51 µM. Further, the TGI with SN12C renal was found to be 2.98 µM; with CAKI-1 renal, 2.84 µM; with RPMI-8226 leukemia it was 3.03 µM; with M14 melanoma it was 3.09 µM; in the assay with UO-31 renal it was 2.69 µM; with HCT-15 colon, 2.59 µM. For the same compound, the TGI in the assay with SF-295 CNS was determined as 3.15 µM; in the assay on A549 NSCLC, 3.25 µM; in the assay on SNB-19 CNS it was 3.18 µM; in the assay on MDA-MB-435 it was 3.08 µM.
